Source: ChEMBL document CHEMBL4270626, “Synthesis and antitumor activity of epothilone B” (Eur J Med Chem, 2018)

Tests used:
U-266 = assay: Antiproliferative activity against human U266 cells assessed as inhibition of cell proliferation; assay type: functional, cell-based
[1] = Inhibition of GFP-tagged alpha-tubulin (unknown origin) expressed in human MCF7 cells assessed as disruption of microtubule polymerization; assay type: cell-based
Hs-578T = assay: Cytotoxicity against human Hs 578T cells; assay type: functional, cell-based
MM1.S = assay: Antiproliferative activity against human MM1S cells assessed as inhibition of cell proliferation; assay type: functional, cell-based
RPMI-8226 = assay: Antiproliferative activity against human […] cells assessed as inhibition of cell proliferation; assay type: functional, cell-based
Tubulin = assay: […] in human MCF7 cells assessed as induction of mitotic arrest; assay type: cell-based
[2] = Antiproliferative activity against human RPMI8226/MR20 cells assessed as inhibition of cell proliferation; assay type: functional, cell-based; settings: RPMI-8226
KB-V1 = assay: Cytotoxicity against human KBV1 cells; assay type: functional, cell-based
KB 3-1 = assay: Cytotoxicity against human KB3-1 cells; assay type: functional, cell-based
HeLa = assay: Cytotoxicity against human HeLa cells; assay type: functional, cell-based
HCT-116 = assay: Antiproliferative activity against human HCT116 cells assessed as inhibition of cell proliferation; assay type: functional, cell-based
[3] = Antiproliferative activity against human 8226/LR-5 cells assessed as inhibition of cell proliferation; assay type: functional, cell-based
[4] = Inhibition of paclitaxel binding to microtubule (unknown origin); design: species or system Homo sapiens

C/C(=C\c1csc(C)n1)[C@@H]1C[C@@H]2O[C@]2(C)CCC[C@H](C)[C@H](O)[C@@H](C)C(=O)C(C)(C)[C@@H](O)CC(=O)O1 [PATUPILONE]
IC50 (U-266): 1 to 10 nM | IC50 [1]: 3.5 nM | IC50 (Hs-578T): 3 to 92 nM | IC50 (MM1.S): 1 to 10 nM | IC50 (RPMI-8226): 1 to 10 nM | IC50 (Tubulin): 3.5 nM | IC50 [2]: 1 to 10 nM | IC50 (KB-V1): 3 to 92 nM | IC50 (KB 3-1): 3 to 92 nM | IC50 (HeLa): 3 to 92 nM | IC50 (HCT-116): 0.8 nM | IC50 [3]: 1 to 10 nM | IC50 [4]: 3.3 nM
